Assay [1] deals with EAE animal model of multiple sclerosis. As to the kind of experiment: EAE induced by MBP injection in Lewis rats, neurological disease scoring (first study, dosing day 3-21). It is filed as in vivo. Particulars: for reduction in disease severity compared to vehicle-treated control EAE animals: day 3 to day 21 after MBP injection. An excerpt: Experimental allergic encephalomyelitis (EAE, also referred to as experimental autoimmune encephalomyelitis) is currently the best animal model of human multiple sclerosis (MS). In this model, induction of EAE occurs following, for example, injection of spinal cord homogenate or central nervous system (CNS) antigens, such as myelin basic protein (MBP), myelin olidgodendrocyte glycoprotein, or proteolipid protein. Approximately 10 days following injection of CNS antigens, susceptible rats (e.g., Lewis rats) develop a progressive paralysis similar to that observed in humans.
Female Lewis rats of approximately 220 grams were used in this study (Janvier; Le Genest St Isle, France). Compounds of the invention were formulated in water containing 10% cremophor and 60 mM L-histidine to achieve a final concentration of either 2 mg/ml or 6 mg/ml. Dexamethasone was dissolved in saline at a concentration of 0.1 mg/ml.
Induction of EAE by injection with myelin basic protein (MBP) antigen was performed as follows. Prior to injection with the MBP antigen (day 0), rats were anaesthetized by injection of 60 mg/kg of ketamine (Imalgene500®, Rhone Mérieux, Lyon, France) plus 4 mg/kg of xylazine (Rompum 2%, Bayer Pharma, Kiel, Germany). Rats were then injected in the hind footpad with a total volume of 100 μl of MBP inoculum solution per paw containing 100 μg of MBP antigen (Sigma, L'Isle d'Abeau Chesnes, France) emulsified (1:1) containing incomplete Freund's adjuvant (IFA) (Sigma, L'Isle d'Abeau Chesnes, France) and 500 μg of heat-inactivated mycobacterium tuberculosis (strain H 37 RA from Difco). Control rats were similarly injected with an equivalent volume of inoculum without MBP. […]
Neurological scoring was performed daily from day 7 to day 21 following BP injection. […] Analysis of variance (ANOVA) was performed on data from the measured (clinical score) or the calculated (severity score) parameters. […]
Cumulative EAE disease score, used as a measure of overall disease severity, was determined by adding all disease/neurological scores for each animal over the time course of the experiment.

For assay [2], the system named is Oligodendrocytes (MO3.13 cells). As to the kind of experiment: Ceramide-induced cell death of oligodendrocytes, Calcein AM viability. It is filed as cell-based. To be noted: for viability at 20 µM: ceramide 2.25 μM, compound 20 μM, non-ceramide control = 100. From the text:
(See e.g., Craighead et al. (2000) Neurosci Lett. 278:125-8; Jana et al. (2007) J Neuroimmune Pharmacol. 2:184-93; Jana et al. (2009) J Neurol Sci. 278:5-15; Singh et al. (1998) J Biol. Chem. 273:20354-62.) In this model, addition of ceramide to cultured oligodendrocytes results in oxidative stress-induced cell death (i.e. apoptosis). The effect of compounds and methods of the present invention on the ability to improve oligodendrocyte viability following ceramide challenge was examined as follows. Oligodendrocytes (MO3.13 cells; Cedarlane Laboratories, Burlington, N.C.) were plated in 96-well culture dishes at a density of 4000 cells per well and cultured at 37° C., 10% CO2 in DMEM containing L-glutamine, sodium pyruvate, and 25 mM glucose (Mediatech Inc., Manassas, Va.) and supplemented with 10% FBS (Invitrogen Corporation, Carlsbad, Calif.). The next day, the plating media was removed and replaced with DMEM containing L-glutamine (Invitrogen Corporation, Carlsbad, Calif.) and supplemented with 5.5 mM glucose. Cells were then treated with vehicle (0.015% DMSO) or ceramide (Sigma-Aldrich, St. Louis, Mo.) plus vehicle (0.05% DMSO) or a compound of the invention (20 μM).
For cells treated longer than 3 days, half the media was removed after the third day of treatment and replaced with an equal volume of fresh treatment media containing vehicle (0.015% DMSO) or ceramide plus vehicle (0.05% DMSO) or a compound of the invention.
Cell viability was assessed 3, 4, and 5 days after treatment using the following protocol. Treatment media was removed from the cells and 100 ul of 1.67 uM Calcein AM reagent (Invitrogen Corporation, Carlsbad, Calif.) prepared in DMEM containing L-glutamine (Invitrogen Corporation, Carlsbad, Calif.) and supplemented with 5.5 mM glucose was added to each well. Cells were returned to 37° C. in a 10% CO2 incubator for approximately 30 minutes before assessing fluorescence (Ex 485 nm/Em 538 nm) using a microplate reader (Molecular Devices, Sunnyvale, Calif.). Images were taken of representative wells using a fluorescent microscope equipped with a camera (Nikon, Melville, N.Y.) and imaging software (Nikon, Melville, N.Y.).

Structures are written as SMILES. Read-outs that look alike come from different tables or passages of the source.

As for `N#Cc1nc(C(=O)NCC(=O)O)c(O)c2c(Oc3ccccc3)cccc12` [Compound A, [(1-Cyano-4-hydroxy-5-phenoxy-isoquinoline-3-carbonyl)-amino]-acetic acid], the “reduction in disease severity compared to vehicle-treated control EAE animals” value turned out to be 17% in assay [1] (10 mg/kg p.o. daily) and 46% in assay [1] (30 mg/kg p.o. daily, p<0.05). Also, the “cumulative disease score (AUC)” value in assay [1] (either 10 mg/kg or 30 mg/kg p.o. daily, day 3-21, FIG. 2) is “reduced”. The viability at 20 µM in assay [2] (72 h, read-out: % Viable at Day 3) was 82%; in assay [2] (96 h, read-out: % Viable at Day 4), 46%; in assay [2] (120 h, read-out: % Viable at Day 5), 33%. Besides, the “increase in viability compared to vehicle treated oligodendrocytes” value in assay [2] (ceramide-challenged, day 5) is 3 fold.

The record behind these values is patent US20110263642A1, “METHODS FOR TREATMENT OF MULTIPLE SCLEROSIS” (FibroGen, Inc., priority 2008, published 2011).
